From paper PMC7530392, “A label‐free impedance assay in endothelial cells differentiates the activation and desensitization properties of clinical S1P1 agonists” (FEBS Open Bio, 2020)
“Also recorded” adds a separate entry of the source. Like-named read-outs stand apart in the source and are kept apart here.

Tests used:
recombinant human GRK2 = biological target: T1, recombinant human GRK2 (Homo sapiens, UniProt P25098); test: 33P-ATP flash plate kinase assay; format: biochemical; conditions: 3 µM ATP, biotin-[…] substrate
T1 construct: purchased Thermo Fisher PR4694A
T1 sequence (P25098 1-689): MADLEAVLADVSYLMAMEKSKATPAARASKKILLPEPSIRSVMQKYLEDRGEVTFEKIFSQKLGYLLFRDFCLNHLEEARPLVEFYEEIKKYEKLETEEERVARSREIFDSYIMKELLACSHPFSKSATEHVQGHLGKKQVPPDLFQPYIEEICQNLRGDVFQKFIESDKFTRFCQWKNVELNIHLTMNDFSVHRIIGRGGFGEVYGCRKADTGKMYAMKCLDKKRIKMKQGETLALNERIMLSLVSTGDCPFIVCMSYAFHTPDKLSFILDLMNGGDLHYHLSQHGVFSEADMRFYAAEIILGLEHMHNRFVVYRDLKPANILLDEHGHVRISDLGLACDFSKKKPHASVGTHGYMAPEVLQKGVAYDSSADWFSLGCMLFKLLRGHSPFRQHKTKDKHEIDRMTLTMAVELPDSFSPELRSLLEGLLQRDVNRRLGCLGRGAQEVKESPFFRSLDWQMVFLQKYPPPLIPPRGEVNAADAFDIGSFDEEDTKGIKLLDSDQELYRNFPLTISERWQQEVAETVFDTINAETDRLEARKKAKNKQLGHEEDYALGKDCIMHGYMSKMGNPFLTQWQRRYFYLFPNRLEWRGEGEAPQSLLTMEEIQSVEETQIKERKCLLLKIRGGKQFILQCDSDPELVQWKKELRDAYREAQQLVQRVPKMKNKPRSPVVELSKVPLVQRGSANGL

human S1P1 = test: β-arrestin recruitment assay in PathHunter cells overexpressing human S1P1; format: cell-based; conditions: read-out: IC50 inhibition of β-arrestin recruitment
Method: The cellular potency of the GRK2 inhibitor was determined using a β‐arrestin recruitment assay in PathHunter® cells overexpressing human S1P1 (Eurofins DiscoverX Corporation, San Diego, CA, USA; catalogue number 93‐0207C2) as described. The mean IC50 from at least 3 separate experiments was reported.

S1P1 [1] = biological target: T2, S1P1 (Homo sapiens, UniProt P21453); test: Label-free impedance assay in HUVEC, first stimulation (early and late BNCI response); format: cell-based; conditions: for Late phase Max: determined manually for bell-shaped responses; for Early phase Max: BNCI curve maximum; for Early phase Max / Early phase Min / Early phase Hill slope: early response; for Early phase Min: BNCI curve minimum; for Emax: read-out: Maximum BNCI in late response as % of E max in early response; for EC50: first stimulation, geometric mean; for Impedance profile in the presence of the GRK2 inhibitor: 10 µM GRK2 inhibitor, over 60 min
T2 construct: host or cells: HUVEC (pooled donors)
Method: (§1) HUVECs from pooled donors (PromoCell GmbH, Heidelberg, Germany, C‐12203) were seeded at 10 000 cells per well, in complete medium (C2210, C39210) containing 2% fetal bovine serum (FBS), in 96‐well collagen‐I coated E‐plates. Cells were allowed to attach and proliferate for 6 h, followed by overnight serum starvation in medium containing 0.1% FBS. Electrical impedance was measured continuously with RTCA‐MP station (xCELLigence RTCA, ACEA‐Biosciences, San Diego, CA, USA), according to the manufacturer’s protocol, and expressed as baseline normalized cell index (BNCI) using RTCA2.0 software. Impedance measurements were analyzed for 60 min following addition of test compounds or DMSO control, and the early (peak response at 8–10 min) and late response (at 60 min) was used for further analysis. Cells were then washed in medium containing 0.1% FBS for 5.5 h. The effect of each test compound to desensitize the response to a second stimulation with the natural ligand S1P (80 nM) was measured in the same wells and expressed as the AUC0–60 min of the S1P‐induced BNCI response. […] The baseline for the BNCI calculation was the respective vehicle responses for the first (0.1% DMSO) and second stimulations (2.5 µg·mL^−1 BSA). When tested, 10 µM GRK2 inhibitor was pretreated with cells for 2 h prior to addition of test compounds and its effect on early and late responses measured as above. All experiments were repeated on at least 3 separate occasions.
Effective concentration corresponding to half of the difference between the maximum and minimum effect (EC50) of agonists was determined with SAS procedure NLIN in SAS system release 9.1 under UNIX via BIOSTAT@T‐SPEED‐LTS v2.0 internal software using the 4‐parameter logistical model.

S1P1 [2] = biological target: T2, S1P1; test: Desensitization of S1P-induced BNCI response in HUVEC (second stimulation with 80 nM S1P); format: cell-based; conditions: for Desensitization Max: S1P-induced BNCI response curve maximum; for Desensitization Max / Desensitization Min / Desensitization Hill slope: arithmetic mean; for Desensitization Min: S1P-induced BNCI response curve minimum; for IC50: absolute 50% reduction of control S1P (80 nM)-induced BNCI AUC0–60 min after 5.5 h wash, geometric mean, read-out: Desensitization IC50 [95% CI]
Method: as §1
The activation‐to‐desensitization ratio was expressed as IC50/EC50 for early phase. EC50, IC50, and activation‐to‐desensitization ratio were reported as geometric mean with 95% confidence intervals.

[3] = cited from earlier work
lymphocytes = conditions: approved dose in MS; no reference given; cited from earlier work
[4] = BNCI at 60 min, arithmetic mean
[5] = late (60 min) versus early phase
[6] = BNCI peak response at 8–10 min, read-out: Early phase EC50 [95% CI]

T2 sequence (P21453 whole entry): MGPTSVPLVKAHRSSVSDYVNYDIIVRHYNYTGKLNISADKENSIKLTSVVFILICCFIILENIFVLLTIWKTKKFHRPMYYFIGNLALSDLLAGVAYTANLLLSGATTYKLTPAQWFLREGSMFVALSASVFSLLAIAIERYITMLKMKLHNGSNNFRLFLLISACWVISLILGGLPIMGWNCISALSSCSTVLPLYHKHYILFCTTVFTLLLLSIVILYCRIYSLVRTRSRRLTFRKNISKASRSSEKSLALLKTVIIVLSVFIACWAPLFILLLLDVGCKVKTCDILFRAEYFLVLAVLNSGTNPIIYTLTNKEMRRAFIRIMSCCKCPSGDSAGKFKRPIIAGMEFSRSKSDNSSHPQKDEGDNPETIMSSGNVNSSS

Structure (SMILES)	Shape of concentration–effect relationship in the late response (S1P1 [1]; BNCI at 60 min)	Late phase Max (S1P1 [1]; [4])	Early phase Max (S1P1 [1]; arithmetic mean)	Early phase Min (S1P1 [1]; arithmetic mean)	Early phase Hill slope (S1P1 [1]; arithmetic mean)	Emax (S1P1 [1]; [5]) [%]	EC50 (S1P1 [1]; [6]) [nM]	Desensitization Max (S1P1 [2])	Desensitization Min (S1P1 [2])	Desensitization Hill slope (S1P1 [2])	Volume of distribution in human [3]	Lymphocyte reduction (lymphocytes)	IC50 (S1P1 [2]) [nM]	Impedance profile in the presence of the GRK2 inhibitor (S1P1 [1])	also measured
O=C(NCc1ccc2onc(NCc3ccccc3C(F)(F)F)c2c1)c1ccc2[nH]ncc2c1 [GRK2 inhibitor, 1H‐Indazole‐5‐carboxylic acid [3‐(2‐trifluoromethyl‐benzylamino)‐1,2‐benzisoxazol‐5‐ylmethyl]‐amide]	–	–	–	–	–	–	–	–	–	–	–	–	–	–	IC50 (recombinant human GRK2): 44 nM; IC50 (human S1P1): 1100 nM
Cc1cc(-c2nc3cnc(Oc4cccc(Cl)c4)nc3o2)cc(C)c1OCC(=O)O [SAR247799]	–	0.425	0.527	0.101	1.0	–	26.1	89.3	1.1	−1.9	7–23 [13] L	–	2980	sustained BNCI increase with no signal decline over 60 min	Late phase Hill slope (S1P1 [1]; [4]): 0.7; Late phase Min (S1P1 [1]; [4]): 0.045; EC50 (S1P1 [1]; BNCI at 60 min, read-out: Late phase EC50 [95% CI]): 42.8 nM; Maximum BNCI in late response as % of E max in early response (S1P1 [1]; [5]): 81%; Further increase of late response by presence of GRK inhibitor (S1P1 [1]; late response, 10 µM GRK inhibitor pretreated 2 h): 2 fold
CCCCCCCCc1ccc(CCC(N)(CO)CO)cc1 [fingolimod]	–	–	–	–	–	–	–	–	–	–	–	70–80%	–	–	–

More lines, main results first:

Shape of concentration–effect relationship in the late response (S1P1 [1]; BNCI at 60 min)	Late phase Max (S1P1 [1]; [4])	Early phase Max (S1P1 [1]; arithmetic mean)	Early phase Min (S1P1 [1]; arithmetic mean)	Early phase Hill slope (S1P1 [1]; arithmetic mean)	Emax (S1P1 [1]; [5]) [%]	EC50 (S1P1 [1]; [6]) [nM]	Structure (SMILES)	Desensitization Max (S1P1 [2])	Desensitization Min (S1P1 [2])	Desensitization Hill slope (S1P1 [2])	Volume of distribution in human [3]	Lymphocyte reduction (lymphocytes)	IC50 (S1P1 [2]) [nM]	Impedance profile in the presence of the GRK2 inhibitor (S1P1 [1])	also measured
bell‐shaped	0.234	0.461	0.188	1.1	51	–	CC(C)Oc1ccc(-c2nc(-c3cccc4c3CC[C@@H]4NCCO)no2)cc1C#N [Ozanimod, ozanimod]	91.5	−13.9	−1.5	5590 [5] L	55%	–	–	–
bell‐shaped	0.468	0.582	0.175	1.2	81	2.41	CCC/N=C1\S/C(=C\c2ccc(OC[C@H](O)CO)c(Cl)c2)C(=O)N1c1ccccc1C [Ponesimod, ponesimod]	79.3	−38.2	−0.9	160 [37] L	–	18.4	–	Activation-to-desensitization ratio [95% CI] (S1P1 [2]; desensitization IC50 / early phase EC50, geometric mean): 7.66 (3.41–17.2); S1P-induced BNCI response after preincubation at the highest concentrations tested (S1P1 [2]; second stimulation with S1P): fall below the baseline
bell‐shaped	0.150	0.440	0.012	0.7	34	0.977	CCc1cc(/C(C)=N/OCc2ccc(C3CCCCC3)c(C(F)(F)F)c2)ccc1CN1CC(C(=O)O)C1 [Siponimod, siponimod]	96.8	−16.3	−1.0	–	70–80%	0.167	sustained BNCI increase with no signal decline over 60 min	Barrier effect in late response in the presence of the GRK inhibitor (S1P1 [1]; 10 µM GRK inhibitor, same concentrations that gave negative BNCI without inhibitor): improved barrier integrity; Late response BNCI at highest concentrations (barrier effect) (S1P1 [1]; 60 min, absence of GRK inhibitor): endothelial barrier disruption; also recorded: concentration‐dependent decrease to negative BNCI values
